Results published in BindingDB's records for doi:10.1016/j.bmcl.2013.01.064 (Bristol Myers Squibb, 2013).

target: Potassium voltage-gated channel subfamily A member 5 (Homo sapiens, UniProt P22460); test: Antagonist activity at human Kv1.5 expressed in mouse L929 cells assessed as inhibition of delayed rectifier repolarization current by patch clamp assay
Sequence (P22460 whole entry): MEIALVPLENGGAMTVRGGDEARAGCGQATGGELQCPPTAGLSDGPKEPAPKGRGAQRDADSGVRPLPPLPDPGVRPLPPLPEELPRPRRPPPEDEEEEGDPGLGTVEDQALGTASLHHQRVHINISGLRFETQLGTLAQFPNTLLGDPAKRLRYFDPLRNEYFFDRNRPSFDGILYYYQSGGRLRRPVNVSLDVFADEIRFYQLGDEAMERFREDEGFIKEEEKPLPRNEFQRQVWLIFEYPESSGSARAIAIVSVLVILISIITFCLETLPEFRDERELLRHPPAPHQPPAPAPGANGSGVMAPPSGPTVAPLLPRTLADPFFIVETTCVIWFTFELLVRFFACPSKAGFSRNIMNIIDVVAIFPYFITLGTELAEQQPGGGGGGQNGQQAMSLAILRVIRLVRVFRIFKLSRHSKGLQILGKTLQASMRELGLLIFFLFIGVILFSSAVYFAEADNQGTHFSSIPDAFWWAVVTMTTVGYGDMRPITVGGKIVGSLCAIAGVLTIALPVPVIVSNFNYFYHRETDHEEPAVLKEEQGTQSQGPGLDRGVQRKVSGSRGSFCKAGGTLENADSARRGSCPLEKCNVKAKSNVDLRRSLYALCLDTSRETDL

Row | SMILES | IC50 [nM]
1 | CC1=Nc2cc(C(F)(F)F)nn2[C@H](c2ccc(Cl)c(Cl)c2)C1c1ncnn1C1CCC(C(F)(F)F)CC1 (stereo partly drawn) | 607
2 | CCOc1cccc(-n2ncnc2C2C(C)=Nc3cc(C(F)(F)F)nn3[C@@H]2c2ccc(Cl)c(Cl)c2)n1 (stereo partly drawn) | 223
3 | CC1=Nc2ccnn2[C@H](c2ccc(Cl)c(Cl)c2)C1c1ncnn1C(C)(C)C (stereo partly drawn) | 223
